# Test results as given in patent US5530018A, “Meso-azanoradamantanes” (G. D. Searle & Co., priority 1994, dated 1996).
# pEC50, pKi: −log10 of the molar value. “Also recorded” adds a separate entry of the source. Structures can show the parent of a compound that is named as a salt.
# What was measured:
# [1] = tested on: myenteric neurons; conditions: cited from earlier work
# [2] = tested on: 5-HT4 receptors; conditions: cited from earlier work
# [3] = tested on: 5-HT4 receptor; conditions: mouse embryonic colliculi neurons; cited from earlier work
# [4] = target: T1, 5-HT4 receptor (Rattus norvegicus, UniProt Q62758); test: cell-based; conditions: carbachol (3 μM)-contracted rat TMM, 37° C., tissues from 5 rats; read-out: 5-HT4 Agonism (Rat TMM) In Vitro Assay: EC50 values
# T1 construct: One 2 cm segment of intrathoracic esophagus proximal to the diaphragm was removed from male rats; from tissue; host or cells: rat intrathoracic oesophagus, inner tunica muscularis mucosae
# Experimental: (§1) 5-HT4 agonist activity was determined in the in vitro rat tunica muscularis mucosae (TMM) assay described herein. (Baxter et al., Naunyn Schmied Arch. Pharmacol, 1991, 343, 439). […] One with skill in the art could determine the activity of the compounds of the present invention using the methodology of these assays, described herein, without undue experimentation.
# Schmied. Arch. Pharmacol. 343, 439 (1991)]. Agonist activity was determined utilizing relaxation of carbachol-contracted rat tunica muscularis mucosae (TMM). One 2 cm segment of intrathoracic esophagus proximal to the diaphragm was removed from male rats, weighing approximately 300 gm, and the outer muscle layers removed. The inner tunica muscularis mucosa was mounted under 0.2-0.3 g of tension in a tissue bath containing oxygenated Tyrode's solution at 37° C. […] Following a 30 minute equilibrium period, tissues were isometrically contracted with carbachol (3 μM) to obtain a tonic contraction. A stable plateau was obtained within 20 minutes when test compound was added cumulatively to relax the muscle strip. EC50 values were obtained for each agonist in tissues from 5 rats.
# [5] = tested on: antroduodenal motility; conditions: dogs, cited from earlier work
# [6] = target: T2, 5-HT3 receptor (Rattus norvegicus, UniProt P35563); test: 5-HT3 radioligand receptor binding, [3H]-GR65630, rat brain cortex membranes
# T2 construct: Brain cortices were obtained from male rats and a membrane fraction prepared by standard techniques; from tissue; host or cells: rat brain cortex membranes
# T2 sequence (P35563 24-483): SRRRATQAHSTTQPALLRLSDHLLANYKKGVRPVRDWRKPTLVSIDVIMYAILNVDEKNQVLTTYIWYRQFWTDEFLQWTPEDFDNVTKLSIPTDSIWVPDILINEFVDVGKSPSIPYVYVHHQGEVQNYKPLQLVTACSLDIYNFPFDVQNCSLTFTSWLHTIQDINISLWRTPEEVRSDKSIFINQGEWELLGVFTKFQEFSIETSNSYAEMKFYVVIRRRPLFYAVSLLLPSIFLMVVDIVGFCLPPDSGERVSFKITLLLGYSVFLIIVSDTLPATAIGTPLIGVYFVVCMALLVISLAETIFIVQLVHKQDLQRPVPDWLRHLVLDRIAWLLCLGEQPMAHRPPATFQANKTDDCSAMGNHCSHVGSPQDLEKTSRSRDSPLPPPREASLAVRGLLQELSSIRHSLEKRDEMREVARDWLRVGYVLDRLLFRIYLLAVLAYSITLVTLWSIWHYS
# Experimental: as §1
# Procedure: GR65630 binds to the 5-HT3 receptor. Brain cortices were obtained from male rats and a membrane fraction prepared by standard techniques. 0.04 mg of membrane prep was incubated with 0.2 nM [^3 H]-GR65630 for 66 minutes at 22° C. […] Membranes were filtered and washed 3 times and the filters were counted to determine [^3 H]-GR65630 specifically bound. [Kilpatrick GJ, Jones BJ and Tyers MB, Identification and Distribution of 5-HT3 Receptors in Rat Brain Using Radioligand Binding Assay, Nature 330, 746-748 (1987)].
# [7] = tested on: GI transit; conditions: cited from earlier work
# [8] = tested on: gastric emptying; conditions: in vivo; cited from earlier work
# [9] = tested on: guinea pig stomach strips; conditions: in vitro; cited from earlier work
# [10] = tested on: GI transit; conditions: mice; cited from earlier work
# [11] = tested on: 5-HT3; conditions: in vivo; cited from earlier work
# T1 sequence (Q62758 whole entry): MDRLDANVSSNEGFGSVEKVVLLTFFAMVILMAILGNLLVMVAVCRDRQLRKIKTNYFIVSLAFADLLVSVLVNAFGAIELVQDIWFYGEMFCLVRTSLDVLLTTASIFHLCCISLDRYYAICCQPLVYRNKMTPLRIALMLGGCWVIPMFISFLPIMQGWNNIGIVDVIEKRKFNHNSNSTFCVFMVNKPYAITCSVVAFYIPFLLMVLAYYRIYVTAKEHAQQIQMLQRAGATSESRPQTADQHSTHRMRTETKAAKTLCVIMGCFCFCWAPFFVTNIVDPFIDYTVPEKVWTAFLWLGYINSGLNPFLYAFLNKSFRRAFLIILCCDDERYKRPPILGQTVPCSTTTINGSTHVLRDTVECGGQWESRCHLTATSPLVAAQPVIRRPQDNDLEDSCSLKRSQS
structure (smiles),measurement,setting,value
COc1cc(N)c(Cl)cc1C(=O)NC1CCN2CCCC1C2 (stereo not shown) [BRL-24924],depolarization of myenteric neurons,[1],depolarize myenteric neurons
same,peristaltic reflex mediated through 5-HT4 receptors,[2],mediated through agonism at 5-HT4 receptors
same,prokinetic activity correlated with agonist activity at 5-HT4 receptor,[3],correlate with agonist activity at a novel 5-HT4 receptor subtype
COc1cc(N)c(Cl)cc1C(=O)NC1CCN(CCCOc2ccc(F)cc2)CC1OC (stereo not shown) [Cisapride],pEC50,[4],7.26
same,depolarization of myenteric neurons,[1],depolarize myenteric neurons
same,antroduodenal motility,[5],enhanced antroduodenal motility in dogs
same,prokinetic activity correlated with agonist activity at 5-HT4 receptor,[3],correlate with agonist activity at a novel 5-HT4 receptor subtype
"COc1cc(NC(C)=O)c(Cl)cc1C(=O)N[C@H]1[C@@H]2C[C@@H]3C[C@H]1CN3C2 [Example 1, Syn-4,(acetylamino)-5-chloro-N-(hexahydro-2,6-methano-1H-pyrrolizin8-yl)-2-methoxybenzamide]",pEC50,[4],5.48
"COc1cc(NC(C)=O)c(Cl)cc1C(=O)N[C@@H]1[C@@H]2C[C@@H]3C[C@H]1CN3C2 [Example 2, Anti-4-(acetylamino)-5-chloro-N-(hexahydro-2,6-methano-1H-pyrrolizin-8-yl)-2-methoxybenzamide]",pEC50,[4],< 5.00
"COc1cc(N)c(Cl)cc1C(=O)N[C@H]1[C@@H]2C[C@@H]3C[C@H]1CN3C2 [Example 3, Syn-4-amino-5-chloro-N-(hexahydro,2,6-methano-1H-pyrrolizin-8-yl)-2-methoxybenzamide]",pEC50,[4],5.65
"COc1cc(N)c(Cl)cc1C(=O)N[C@H]1[C@@H]2C[C@@H]3C[C@H]1CN3C2 [Example 4, Syn-4-amino-5-chloro-N-(hexahydro-2,6-methano-1H-pyrrolizin-8-yl)-2-methoxybenzamide, hydrochloride]",pEC50,[4],6.15
same,pKi,[6],7.66
"COc1cc(N)c(Cl)cc1C(=O)N[C@@H]1[C@@H]2C[C@@H]3C[C@H]1CN3C2 [Example 5, Anti-4-amino-5-chloro-N-(hexahydro-2,6-methano-1H-pyrrolizin-8-yl)-2-methoxybenzamide]",pEC50,[4],6.15
"COc1cc(N)c(Cl)cc1C(=O)N[C@@H]1[C@@H]2C[C@@H]3C[C@H]1CN3C2 [Example 6, Anti-4-amino-5-chloro-N-(hexahydro-2,6-methano-1H pyrrolizin-8-yl)-2-methoxybenzamide, monohydrochloride]",pEC50,[4],6.42
same,pKi,[6],8.42
"COc1cc(NC(C)=O)c(Cl)cc1C(=O)NCC1C2CC3CC1CN3C2 (stereo not shown) [Example 7, 4-(Acetylamino)-5-chloro-N-(hexahydro-2,6-methano-1H-pyrrolizin-8-ylmethyl)-2-methoxybenzamide, hydrochloride]",pEC50,[4],≤ 5.00
"COc1cc(N)c(Cl)cc1C(=O)NCC1C2CC3CC1CN3C2 (stereo not shown) [Example 9, 4-Amino-5-chloro-N-(hexahydro,2,6-methano-1H-pyrrolizin-8-ylmethyl)-2-methoxybenzamide, monobydrochloride]",pEC50,[4],6.40
"COc1cc(N)c(Cl)cc1C(=O)NC[C@@H]1[C@@H]2C[C@@H]3C[C@H]1CN3C2 [Example 11, Anti-4-amino-5-chloro-N-(hexahydro-2,6-methano-1H-pyrrolizin-8-ylmethyl)-2-methoxybenzamide, monohydrochloride]",pEC50,[4],6.18
"COc1cc(N)c(Cl)cc1C(=O)OC1C2CC3CC1CN3C2 (stereo not shown) [Example 13, (Hexahydro-2,6-methano-1H-pyrrolizin-8-yl) 4-amino-5-chloro-2-methoxybenzoate]",pEC50,[4],6.66
"COc1cc(N)c(Cl)cc1C(=O)NC[C@H]1[C@@H]2C[C@@H]3C[C@H]1CN3C2 [Example 14, Syn-4-amino-5-chloro-N-(hexahydro-2,6-methano-1H-pyrrolizin-8-ylmethyl)-2-methoxybenzamide, monohydrochloride]",pEC50,[4],6.38
same,pKi,[6],8.96
Cc1nccn1CC1CCc2c(c3ccccc3n2C)C1=O (stereo not shown) [GR38032],GI transit / colonic transit,[7]; man (S. Gore et al.),"not only failed to accelerate GI transit, but in fact slowed colonic transit in man"
same,small intestinal transit times or mouth-to-cecum transit times,[7]; man (Talley et al.),did not alter small intestinal transit times or mouth-to-cecumtransit times
same,gastric emptying,[8],enhanced gastric emptying
Cc1nc[nH]c1CCC(=O)c1cn(C)c2ccccc12 [GR65630],Bmax,"[6]; [3H]-GR65630, rat brain cortex membranes",154 fmol/mg protein
same,% Specific Binding,"[6]; [3H]-GR65630, non-specific binding in presence of 1 uM ICS 205,930",70%
"CN1[C@@H]2CC[C@H]1C[C@@H](OC(=O)c1c[nH]c3ccccc13)C2 [ICS 205,930]",guinea pig stomach strip contraction,[9],enhanced guinea pig stomach muscle strip contraction in vitro
same,effect on responses to cisapride,[5]; coadministered with cisapride,did not affect the responses to cisapride when the agents were coadministered
same,gastric emptying,[8],increases in gastric emptying rates in vivo; also recorded: enhanced gastric emptying
CN1[C@@H]2CC[C@H]1C[C@@H](OC(=O)c1cc(Cl)cc(Cl)c1)C2 [MDL 72222],guinea pig stomach strip contraction,[9],enhanced guinea pig stomach muscle strip contraction in vitro
same,gastric emptying,[8],increases in gastric emptying rates in vivo
Cc1nccn1CC1CCc2c(c3ccccc3n2C)C1=O.Cl.O.O (stereo not shown) [SN-307],transit of a charcoal meal,[10],enhanced transit of a charcoal meal in mice
"NCCc1c[nH]c2ccc(O)cc12 [Serotonin, 5-hydroxytryptamine]",peristaltic reflex mediated through 5-HT4 receptors,[2],mediated through agonism at 5-HT4 receptors
CCN(CC)CCNC(=O)c1cc(Cl)c(N)cc1OC [metoclopramide],guinea pig stomach strip contraction,[9],enhanced electrical-field stimulated contractions in guinea pig stomach strips; also recorded: enhanced guinea pig stomach muscle strip contraction in vitro
same,5-HT3 mediated Bezold Jarisch reflex,[11],blocks the 5-HT3 mediated Bezold Jarisch reflex
same,gastric emptying,[8],increases in gastric emptying rates in vivo
COc1cc(N)c(Cl)cc1C(=O)NC1CN2CCC1CC2 (stereo not shown) [zacopride],gastric emptying,[8],enhanced gastric emptying
